# In patent publication US6960337B2, “Methods and compositions for treating benign gynecological disorders” (Balance Pharmaceuticals, Inc., priority 2002, dated 2005):
# Values joined by “and” are separate entries in the source; they are usually repeats but may differ in a detail not shown here. Equal values may be shown once. Read-outs that look alike come from different tables or passages of the source.
# Assays:
# [1] = cited from earlier work
# [2] = tested on: heavy bleeding secondary to uterine leiomyomata; assay: Bleeding score from daily bleeding calendar (sum of 28 day diary entries; 0 no bleeding, 5 normal flow, 10 or greater menorrhagia), Example 2; format: in vivo, human
# Protocol: (§1) A 12 week study was performed to establish an effective dose of deslorelin for controlling heavy bleeding secondary to uterine leiomyomata. Forty-one women completed the study and are identified as Subject Nos. 1-41. The women were divided into test groups for treatment with intranasal deslorelin as follows:
# (§2) An intranasal preparation consisting of deslorelin at the indicated concentration along with sorbitol (61.6 mg/mL), benzalkonium chloride (0.1 mg/mL), and water was prepared according to the procedure of Example 1. The preparation was administered with a commercially available nasal sprayer that delivered a 50 μL spray volume. The preparation was administered by application of 50 μL to each nostril once per day, for a total daily spray volume of 100 μL to give the indicated dose of deslorelin.
# (§3) The average age of the premenopausal patients was 42.3, with similar distribution among groups. For one complete menstrual cycle prior to treatment, each woman completed a daily bleeding calendar. Eligible subjects were then treated with deslorelin at the assigned dosage once per day by intranasal application. During the 12 weeks of daily intranasal administration, each woman kept a daily bleeding calendar, completed quality of life questionnaires, and underwent clinical assessment and laboratory testing. The subjects were tracked for 6 weeks post-treatment for further assessment and to document time to recovery of menses after last drug treatment day. Clinical assessments included grading of nasal irritation (Table 3A), determination of uterine size (Table 3B), and serum hormone levels (Table 3C).
# [3] = tested on: ovarian suppression (serum estradiol and progesterone levels); format: in vivo, human; details: for Hormone Levels: Progesterone: daily, individual subjects
# Protocol: Example 4 describes a study performed in support of the invention where the nasal preparation is similar to that of Example 1, comprised of a GnRH compound, estradiol, and testosterone, was administered to healthy, premenopausal women. Three doses of the GnRH compound deslorelin were tested, 0.5 mg, 1.0 mg, and 2.0 mg. The nasal preparation was administered using a conventional metered nasal spray delivery device. The subjects received two 50 μL sprays, one in each nostril, daily for four weeks. Blood samples were collected prior to drug administration on day 1 of the study, and then at regular intervals throughout day 1. Thereafter, blood samples were collected weekly, until day 29, when blood was collected at scheduled intervals throughout the day. Serum deslorelin, estradiol, testosterone, and progesterone were quantified, and the results are shown in Tables 4A through 4C, below in Example 4.
# Nine premenopausal women, ages 20 to 45 years, were recruited and randomly divided into three test groups for a 29 day study. […] The single intranasal administration consisted of a 100 μL dose delivered using a metered nasal spray device as two 50 μL sprays, one in each nostril.
# An indwelling intravenous catheter was inserted in an arm vein for withdrawal of blood samples prior to drug administration and at defined intervals post administration (study day 1) of 40, 120, 240, and 480 minutes. Thereafter, weekly blood samples (study days 8, 15, and 22) were collected for determination of serum estradiol, progesterone, testosterone, and deslorelin levels. On study day 29 post administration, blood samples were drawn according to the same regimen on study day 1. After collection, all blood samples were allowed to clot at room temperature, then refrigerated. Within 24 hours of collection, serum was separated and stored frozen at −5° C. until assayed.
# Serum levels of estradiol, testosterone, and progesterone were quantitated by sensitive and specific radioimmunoassay methods (Stanczyk, F. Z. et al., Am. J Obstet. Gynecol., 159(6):1540 (1988); Scott et al., Am. J Obstet. Gynecol., 130(7):817 (1978)). Prior to assay of the steroid hormones, serum was extracted with ethyl acetate:hexane (1:1) and for the testosterone assay further purified via Celite™ column chromatography, with 40% toluene to elute the testosterone. Procedural losses were followed by addition of 1000 dpm of the appropriate tritiated internal standard. The sensitivities of the estradiol, testosterone, and progesterone assays were 8 pg/mL, 4 ng/dL, and 10 ng/dL, respectively. […] Intra- and inter-assay coefficients of variation were 5% to 10% and 10% to 15%, respectively. Specificity of the assays was enhanced by eliminating interfering metabolites with extraction and/or chromatography and through the use of highly specific antisera.
# [4] = tested on: ovarian estrogen and progesterone production; assay: Serum hormone levels, 12 week intranasal deslorelin study (Example 2); format: in vivo, human
# Protocol: Testosterone levels are also similar.
# as §1, §2, §3
# [5] = tested on: premenopausal women with uterine leiomyomata; assay: Uterine size (uterine volume calculated from ultrasound dimensions), Example 2; format: in vivo, human
# Protocol: as §1, §2, §3
# [6] = 0.5 mg/day intranasal, Baseline
# [7] = 0.5 mg/day intranasal, End of Week 4
# [8] = 0.5 mg/day intranasal, End of Week 8
# [9] = 0.5 mg/day intranasal, End of Week 12
# [10] = 1 mg/day intranasal, End of Week 4
# [11] = 1 mg/day intranasal, End of Week 8
# [12] = 1 mg/day intranasal, End of Week 12
# [13] = 2 mg/day intranasal, End of Week 4
# [14] = 2 mg/day intranasal, End of Week 8
# [15] = 2 mg/day intranasal, End of Week 12
# [16] = 0.5-2.0 mg daily intranasal over the 12 week period
smiles,measurement,setting,value
OC[C@H]1O[C@@H]2O[C@H]3[C@H](O)[C@@H](O)[C@@H](O[C@H]4[C@H](O)[C@@H](O)[C@@H](O[C@H]5[C@H](O)[C@@H](O)[C@@H](O[C@H]6[C@H](O)[C@@H](O)[C@@H](O[C@H]7[C@H](O)[C@@H](O)[C@@H](O[C@H]8[C@H](O)[C@@H](O)[C@@H](O[C@H]9[C@H](O)[C@@H](O)[C@@H](O[C@H]%10[C@H](O)[C@@H](O)[C@@H](O[C@H]1[C@H](O)[C@H]2O)O[C@@H]%10CO)O[C@@H]9CO)O[C@@H]8CO)O[C@@H]7CO)O[C@@H]6CO)O[C@@H]5CO)O[C@@H]4CO)O[C@@H]3CO [δ-cyclodextrin],"water solubility (at 25° C., g/100 mL)",[1],8.19 g/100 mL
"CCNC(=O)[C@@H]1CCCN1C(=O)[C@H](CCCN=C(N)N)NC(=O)[C@H](CC(C)C)NC(=O)[C@@H](Cc1c[nH]c2ccccc12)NC(=O)[C@H](Cc1ccc(O)cc1)NC(=O)[C@H](CO)NC(=O)[C@H](Cc1c[nH]c2ccccc12)NC(=O)[C@H](Cc1cnc[nH]1)NC(=O)[C@@H]1CCC(=O)N1 [deslorelin, (pyro)Pro-His-Trp-Ser-Tyr-DTrp-Leu-Arg-Pro-ethylamide]",Bleeding Score,"[2]; 0.5 mg/day intranasal, Baseline Score",10.9
same,Bleeding Score,"[2]; 0.5 mg/day intranasal, Weeks 1-4",6.6
same,Bleeding Score,"[2]; 0.5 mg/day intranasal, Weeks 5-8",3.5
same,Bleeding Score,"[2]; 0.5 mg/day intranasal, Weeks 9-12",2.6
same,Bleeding Score,"[2]; 1 mg/day intranasal, Baseline Score",10.8
same,Bleeding Score,"[2]; 1 mg/day intranasal, Weeks 1-4",7.8
same,Bleeding Score,"[2]; 1 mg/day intranasal, Weeks 5-8",0.4
same,Bleeding Score,"[2]; 1 mg/day intranasal, Weeks 9-12",1.7
same,Bleeding Score,"[2]; 2 mg/day intranasal, Baseline Score",14.1
same,Bleeding Score,"[2]; 2 mg/day intranasal, Weeks 1-4",6.6
same,Bleeding Score,"[2]; 2 mg/day intranasal, Weeks 5-8",1.2
same,Bleeding Score,"[2]; 2 mg/day intranasal, Weeks 9-12",0.6
same,"effectiveness (reduction of bleeding and uterine size), in words","[2]; all tested doses (0.5, 1.0, 2.0 mg)",partially or completely effective
same,bleeding score (summary in words),[2]; end of the three month study,marked improvement
same,Hormone Levels: Progesterone,"[3]; 0.5 mg/mL Deslorelin nasal preparation with estradiol and testosterone, Study Day 1, 0 min",100 ng/dL and 90 ng/dL and 110 ng/dL
same,Hormone Levels: Progesterone,"[3]; 0.5 mg/mL Deslorelin nasal preparation with estradiol and testosterone, Study Day 8",90 ng/dL and 50 ng/dL and 110 ng/dL
same,Hormone Levels: Progesterone,"[3]; 0.5 mg/mL Deslorelin nasal preparation with estradiol and testosterone, Study Day 15",100 ng/dL and 40 ng/dL
same,Hormone Levels: Progesterone,"[3]; 0.5 mg/mL Deslorelin nasal preparation with estradiol and testosterone, Study Day 22",40 ng/dL (2×) and 50 ng/dL
same,Hormone Levels: Progesterone,"[3]; 0.5 mg/mL Deslorelin nasal preparation with estradiol and testosterone, Study Day 29, 0 min",100 ng/dL and 60 ng/dL and 70 ng/dL
same,Hormone Levels: Progesterone,"[3]; 1.0 mg/mL Deslorelin nasal preparation with estradiol and testosterone, Study Day 8",50 ng/dL (2×) and 80 ng/dL
same,Hormone Levels: Progesterone,"[3]; 1.0 mg/mL Deslorelin nasal preparation with estradiol and testosterone, Study Day 15",50 ng/dL and 30 ng/dL and 70 ng/dL
same,Hormone Levels: Progesterone,"[3]; 1.0 mg/mL Deslorelin nasal preparation with estradiol and testosterone, Study Day 22",50 ng/dL (2×) and 60 ng/dL
same,Hormone Levels: Progesterone,"[3]; 1.0 mg/mL Deslorelin nasal preparation with estradiol and testosterone, Study Day 29, 0 min",60 ng/dL and 40 ng/dL and 100 ng/dL
same,Hormone Levels: Progesterone,"[3]; 2.0 mg/mL Deslorelin nasal preparation with estradiol and testosterone, Study Day 1, 0 min",80 ng/dL and 30 ng/dL and 90 ng/dL
same,Hormone Levels: Progesterone,"[3]; 2.0 mg/mL Deslorelin nasal preparation with estradiol and testosterone, Study Day 8",50 ng/dL (2×) and 20 ng/dL
same,Progesterone levels during the treatment interval,"[3]; all three deslorelin doses, generally, indicating that women were anovulatory",less than 80 ng/dL
same,Serum levels of estradiol on day 29,[3]; in vivo,0.014 to 0.103 ng/mL
same,Hormone Levels: Estradiol,[4]; [6],173 pg/mL
same,Hormone Levels: Progesterone,[4]; [6],641 ng/dL
same,Hormone Levels: Testosterone,[4]; [6],24 ng/dL
same,Hormone Levels: Estradiol,[4]; [7],47 pg/mL
same,Hormone Levels: Progesterone,[4]; [7],40 ng/dL
same,Hormone Levels: Testosterone,[4]; [7],19 ng/dL
same,Hormone Levels: Estradiol,[4]; [8],79 pg/mL
same,Hormone Levels: Progesterone,[4]; [8],30 ng/dL
same,Hormone Levels: Testosterone,[4]; [8],22 ng/dL
same,Hormone Levels: Estradiol,[4]; [9],66 pg/mL
same,Hormone Levels: Progesterone,[4]; [9],37 ng/dL
same,Hormone Levels: Testosterone,[4]; [9],23 ng/dL
same,Hormone Levels: Estradiol,"[4]; 1 mg/day intranasal, Baseline",123 pg/mL
same,Hormone Levels: Progesterone,"[4]; 1 mg/day intranasal, Baseline",480 ng/dL
same,Hormone Levels: Testosterone,"[4]; 1 mg/day intranasal, Baseline",26 ng/dL
same,Hormone Levels: Estradiol,[4]; [10],51 pg/mL
same,Hormone Levels: Progesterone,[4]; [10],12 ng/dL
same,Hormone Levels: Testosterone,[4]; [10],22 ng/dL
same,Hormone Levels: Estradiol,[4]; [11],95 pg/mL
same,Hormone Levels: Progesterone,[4]; [11],25 ng/dL
same,Hormone Levels: Testosterone,[4]; [11],20 ng/dL
same,Hormone Levels: Estradiol,[4]; [12],30 pg/mL
same,Hormone Levels: Progesterone,[4]; [12],10 ng/dL
same,Hormone Levels: Testosterone,[4]; [12],16 ng/dL
same,Hormone Levels: Estradiol,"[4]; 2 mg/day intranasal, Baseline",184 pg/mL
same,Hormone Levels: Progesterone,"[4]; 2 mg/day intranasal, Baseline",337 ng/dL
same,Hormone Levels: Testosterone,"[4]; 2 mg/day intranasal, Baseline",34 ng/dL
same,Hormone Levels: Estradiol,[4]; [13],14 pg/mL
same,Hormone Levels: Progesterone,[4]; [13],12 ng/dL
same,Hormone Levels: Testosterone,[4]; [13],16 ng/dL
same,Hormone Levels: Estradiol,[4]; [14],31 pg/mL
same,Hormone Levels: Progesterone,[4]; [14],14 ng/dL
same,Hormone Levels: Testosterone,[4]; [14],20 ng/dL
same,Hormone Levels: Estradiol,[4]; [15],30 pg/mL
same,Hormone Levels: Progesterone,[4]; [15],13 ng/dL
same,Hormone Levels: Testosterone,[4]; [15],20 ng/dL
same,reduction in serum estradiol levels (summary in words),[4]; [16],progressive and dose dependent
same,serum progesterone levels (summary in words),[4]; [16],progressive suppression with higher dose and longer time
same,"Uterine Size, Mean Difference (end of week 12 minus baseline uterine volume)",[5]; 0.5 mg/day intranasal,−109.6 cm^3
same,"Uterine Size, Mean Difference (end of week 12 minus baseline uterine volume)",[5]; 1 mg/day intranasal,−63.6 cm^3
same,"Uterine Size, Mean Difference (end of week 12 minus baseline uterine volume)",[5]; 2 mg/day intranasal,−246.5 cm^3
same,uterine volume (summary in words),"[5]; 0.5, 1.0, 2.0 mg daily intranasal, 12 weeks, said to correlate directly with dose",reduction in uterine volume
